In patent EP0564356A1, “4-phenylaminomethylimidazole derivatives, process for their preparation, angiotensin II receptor antagonists and their application in therapy” (FOURNIER INDUSTRIE ET SANTE, priority 1992, dated 1993) one finds IC50 data, which are given here for 56 molecules.

The test deals with T1, récepteur vasculaire de l'angiotensine II (Oryctolagus cuniculus, UniProt P34976).
T1 construct: réponse contractile induite par l'angiotensine II dans des anneaux isolés d'aorte de lapin; from tissue; host or cells: isolated rabbit aortic rings
T1 sequence (P34976 1-359): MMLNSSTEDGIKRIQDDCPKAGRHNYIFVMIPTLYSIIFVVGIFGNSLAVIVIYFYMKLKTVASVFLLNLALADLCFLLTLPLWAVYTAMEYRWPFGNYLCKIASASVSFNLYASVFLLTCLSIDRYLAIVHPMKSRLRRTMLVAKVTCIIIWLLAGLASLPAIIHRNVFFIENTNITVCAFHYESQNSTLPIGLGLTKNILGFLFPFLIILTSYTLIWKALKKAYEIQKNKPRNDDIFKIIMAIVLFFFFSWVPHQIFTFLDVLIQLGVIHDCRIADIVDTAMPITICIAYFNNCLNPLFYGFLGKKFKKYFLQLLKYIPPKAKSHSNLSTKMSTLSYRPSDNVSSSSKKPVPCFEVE
The test is described as follows: Antagonism of the angiotensin II-induced contractile response in isolated rabbit aortic rings. Particulars: contraction by angiotensine II 3.10⁻⁹ M, test product preincubated 15 minutes, 37°C. On the set-up: species or system lapin. As to the method:
L'activité des composés selon l'invention comme antagonistes du récepteur vasculaire de l'angiotensine II a été évaluée par leur efficacité à antagoniser la réponse contractile induite par l'angiotensine II dans des anneaux isolés d'aorte de lapin. Les anneaux sont suspendus dans un bain de Krebs-Henseleit maintenu à 37°C et aéré par un mélange O₂/CO₂ (95/5 , v/v) puis étirés à une tension de repos de 2 g. Après une heure de repos, on provoque une contraction par l'angiotensine II (3.10⁻⁹ M) en présence du produit à tester préincubé pendant 15 minutes. La concentration (exprimée en nanomole) de produit à tester produisant une inhibition de 50 % de la réponse contractile (IC₅₀) est calculée à partir de la courbe concentration-réponse . Les résultats obtenus avec un certain nombre de composés selon l'invention sont regroupés dans le tableau VIII.
`CCCCc1ncc(Cn2c(C(=O)O)cc3ccccc32)n1Cc1ccc(C(=O)O)cc1` [compound 33] displayed a 50% inhibitory concentration (IC50) of 0.0071 µM.

In the case of `CCCCc1nc(Cl)c(Cn2c(C(=O)O)cc3ccccc32)n1Cc1ccc(C(=O)O)cc1` [compound 34], 0.0084 µM corresponded to half-maximal inhibition (IC50).

Molecule `CCCCc1ncc(CNc2cc([N+](=O)[O-])ccc2C(=O)O)n1Cc1ccc(C(=O)O)cc1` [compound 35] showed an IC50 of 0.0012 µM.

With `CCCc1ncc(CNc2ccccc2C(=O)O)n1Cc1ccc(C(=O)O)cc1` [compound 36], the concentration for half-maximal inhibition (IC50) worked out at 0.007 µM.

In turn, `CCCCc1nc(Cl)c(CNc2c(Cl)cc(Cl)cc2C(=O)O)n1Cc1ccc(C(=O)O)cc1` [compound 39] registered an IC50 of 0.106 µM.

Regarding `CCCCc1nc(Cl)c(CNc2c(C(=O)O)cc(OC)c(OC)c2OC)n1Cc1ccc(C(=O)O)cc1` [compound 40], the IC50 was found to be 0.0576 µM.

As to `CCCCc1nc(Cl)c(CNc2ccccc2C(=O)O)n1Cc1ccc(C(=O)O)cc1Cl` [compound 41], it took 0.0051 µM to reach half-maximal inhibition (IC50).

`CCCc1nc(Cl)c(CNc2ccccc2C(=O)O)n1Cc1ccc(C(=O)O)cc1` [compound 42] returned a 50% inhibitory concentration (IC50) of 0.0051 µM.

Molecule `CCCCc1nc(C(F)(F)F)c(CNc2ccccc2C(=O)O)n1Cc1ccc(C(=O)O)cc1` [compound 43] displayed an IC50 of 0.0063 µM.

Regarding `CCCCc1nc(I)c(CNc2ccccc2C(=O)O)n1Cc1ccc(C(=O)O)cc1` [compound 44], the half-maximal inhibitory concentration (IC50) came to 0.0053 µM.

`CCCCc1nc(Cl)c(CNc2ccc(C)cc2C(=O)O)n1Cc1ccc(C(=O)O)cc1` [compound 45] returned a half-maximal inhibitory concentration (IC50) of 0.0067 µM.

For the molecule `CCCCc1nc(Cl)c(CNc2cc([N+](=O)[O-])ccc2C(=O)O)n1Cc1ccc(C(=O)O)cc1` [compound 46], the 50% inhibitory concentration (IC50) worked out at 0.0105 µM.

In the case of `CCCCc1nc(Cl)c(CNc2cc3ccccc3cc2C(=O)O)n1Cc1ccc(C(=O)O)cc1` [compound 47], the concentration for half-maximal inhibition (IC50) was found to be 0.0713 µM.

In turn, `CCCCc1nc(Cl)c(CNc2cc(Cl)ccc2C(=O)O)n1Cc1ccc(C(=O)O)cc1` [compound 48] registered a 50% inhibitory concentration (IC50) of 0.0053 µM.

`CCCCc1nc(Cl)c(CNc2ccc(Cl)cc2C(=O)O)n1Cc1ccc(C(=O)O)cc1` [compound 49]: 0.0132 µM corresponded to half-maximal inhibition (IC50).

`CCCCc1nc(Cl)c(CNc2ccccc2C(=O)O)n1Cc1ccc(C(=O)O)cc1` [compound 50] registered a 50% inhibitory concentration (IC50) of 0.0057 µM.

In turn, `CCCCc1nc(Cl)c(CNc2ccccc2C(=O)O)n1Cc1ccc(-c2nnn[nH]2)cc1` [compound 51] came in with an IC50 of 0.0108 µM.

Molecule `CCCCc1nc(Cl)c(CNc2ccccc2-c2nnn[nH]2)n1Cc1ccc(C(=O)O)cc1` [compound 52] showed a half-maximal inhibitory concentration (IC50) of 0.0402 µM.

Molecule `CCCCc1nc(Cl)c(CN(C(C)=O)c2ccccc2C(=O)O)n1Cc1ccc(C(=O)O)cc1` [compound 55] came in with an IC50 of 0.0691 µM.

The molecule `CCCCc1nc(Cl)c(CNc2ccccc2C(=O)O)n1Cc1ccc(C(=O)NS(=O)(=O)c2ccccc2C)cc1` [compound 66] registered a concentration for half-maximal inhibition (IC50) of 0.0088 µM.

Molecule `CCCCc1ncc(CNc2ccccc2C(=O)O)n1Cc1ccc(C(=O)NS(=O)(=O)c2ccccc2C)cc1` [compound 67] yielded an IC50 of 0.0015 µM.

As to `CCCCc1ncc(CNc2ccccc2C(=O)OCC(=O)N(CC)CC)n1Cc1ccc(C(=O)OC)cc1` [compound 76], the IC50 was found to be 0.09 µM.

As to `CCCCc1ncc(CNc2ccccc2C(=O)OCC(=O)N(CCC)CCC)n1Cc1ccc(C(=O)O)cc1` [compound 134], the IC50 was 0.035 µM.

Regarding `CCCCc1ncc(CNc2ccccc2C(=O)OCC(=O)OCC)n1Cc1ccc(C(=O)O)cc1` [compound 141], half-maximal inhibition (IC50) required 0.01 µM.

The molecule `CCCCc1ncc(CNc2ccccc2C(=O)OC(C)OC(=O)C2CCCCC2)n1Cc1ccc(C(=O)O)cc1` (centres unmarked) [compound 145] yielded an IC50 of 0.04 µM.

Take `CCCCCC(=O)OCOC(=O)c1ccccc1NCc1cnc(CCCC)n1Cc1ccc(C(=O)O)cc1` [compound 148]: the IC50 worked out at 0.012 µM.

For `CCCCc1ncc(CNc2ccccc2C(=O)OCOC(=O)CCC)n1Cc1ccc(C(=O)O)cc1` [compound 149], half-maximal inhibition (IC50) was put at 0.005 µM.

The molecule `CCCCc1ncc(CNc2ccccc2C(=O)OCC(=O)CC)n1Cc1ccc(C(=O)O)cc1` [compound 155] had an IC50 of 0.0087 µM.

In turn, `CCCCc1ncc(CNc2ccccc2C(=O)OCCc2ccccc2)n1Cc1ccc(C(=O)O)cc1` [compound 156] showed an IC50 of 0.082 µM.

The molecule `CCCCc1ncc(CNc2ccccc2C(=O)Oc2ccccc2)n1Cc1ccc(C(=O)O)cc1` [compound 157] gave an IC50 of 0.054 µM.

On to `CCCCc1ncc(CNc2ccccc2C(=O)OCCOC)n1Cc1ccc(C(=O)O)cc1` [compound 158], for which 0.075 µM corresponded to half-maximal inhibition (IC50).

In turn, `CCCCc1ncc(CNc2ccccc2C(=O)OCCC(C)C)n1Cc1ccc(C(=O)O)cc1` [compound 161] registered a half-maximal inhibitory concentration (IC50) of 0.064 µM.

`CCCCc1ncc(CNc2ccccc2C(=O)OCC2CC2)n1Cc1ccc(C(=O)O)cc1` [compound 163] returned a 50% inhibitory concentration (IC50) of 0.05 µM.

In turn, `CCCCc1ncc(CNc2ccccc2C(=O)OCC(C)C)n1Cc1ccc(C(=O)O)cc1` [compound 164] displayed an IC50 of 0.04 µM.

Take `CCCCOC(=O)c1ccccc1NCc1cnc(CCCC)n1Cc1ccc(C(=O)O)cc1` [compound 166]: the IC50 was determined as 0.015 µM.

For `CCCCCOC(=O)c1ccccc1NCc1cnc(CCCC)n1Cc1ccc(C(=O)O)cc1` [compound 170], half-maximal inhibition (IC50) required 0.08 µM.

The molecule `CCCCc1ncc(CNc2ccccc2C(=O)O)n1Cc1ccc(C(=O)OCC)cc1` [compound 174] returned a half-inhibitory concentration (IC50) of 0.08 µM.

The molecule `CCCCc1ncc(CNc2ccccc2C(=O)O)n1Cc1ccc(C(=O)OCC2CC2)cc1` [compound 178] showed a half-inhibitory concentration (IC50) of 0.067 µM.

On to `CCCCc1ncc(CNc2ccccc2C(=O)OCC(=O)N(CCC)CCC)n1Cc1ccc(C(=O)OCC(=O)N(CCC)CCC)cc1` [compound 181], for which half-maximal inhibition (IC50) required 0.08 µM.

Molecule `CCCCc1ncc(CNc2ccccc2C(=O)OCOC(=O)CCC)n1Cc1ccc(C(=O)NS(=O)(=O)c2ccccc2C)cc1` [compound 187] gave an IC50 of 0.007 µM.

As for `CCCCc1nc(SC)c(CNc2ccccc2C(=O)O)n1Cc1ccc(C(=O)O)cc1` [compound 198], the IC50 stood at 0.0046 µM.

As to `CCCCc1ncc(CNc2ccccc2C(=O)O)n1Cc1ccc(C(=O)NS(=O)(=O)c2cccc(Cl)c2)cc1` [compound 201], the IC50 stood at 0.01 µM.

Molecule `CCCCc1ncc(CNc2ccccc2C(=O)O)n1Cc1ccc(C(=O)NS(=O)(=O)c2ccc(Cl)cc2)cc1` [compound 202] came in with an IC50 of 0.0147 µM.

The molecule `CCCCc1ncc(CNc2ccccc2C(=O)O)n1Cc1ccc(C(=O)NS(=O)(=O)c2ccccc2)cc1` [compound 203] registered a half-inhibitory concentration (IC50) of 0.0044 µM.

For `CCCCc1ncc(CNc2ccccc2C(=O)O)n1Cc1ccc(C(=O)NS(=O)(=O)c2ccc(OC)cc2)cc1` [compound 204], inhibition was half-maximal at 0.0095 µM (IC50).

For the molecule `CCCCc1ncc(CNc2ccccc2C(=O)O)n1Cc1ccc(C(=O)NS(C)(=O)=O)cc1` [compound 205], the midpoint of inhibition, the IC50, lay at 0.0055 µM.

As to `CCCCc1ncc(CNc2ccccc2C(N)=O)n1Cc1ccc(C(=O)O)cc1` [compound 209], the concentration for half-maximal inhibition (IC50) worked out at 0.07 µM.

`CCCCNC(=O)c1ccccc1NCc1cnc(CCCC)n1Cc1ccc(C(=O)O)cc1` [compound 210] displayed a half-inhibitory concentration (IC50) of 0.084 µM.

Regarding `CCCCc1ncc(CNc2ccccc2C(=O)O)n1Cc1ccc(C(=O)NS(=O)(=O)c2ccccc2Cl)cc1` [compound 211], half-maximal inhibition (IC50) was put at 0.0008 µM.

`CCCc1ncc(CNc2cc([N+](=O)[O-])ccc2C(=O)O)n1Cc1ccc(C(=O)O)cc1` [compound 212] displayed an IC50 of 0.046 µM.

`CCCCc1ncc(CNc2cc(N=[N+]=[N-])ccc2C(=O)O)n1Cc1ccc(C(=O)O)cc1` [compound 226] displayed an IC50 of 0.006 µM.

`CCCCc1ncc(CNc2ccccc2C(=O)O)n1Cc1ccc(C(=O)NS(=O)(=O)c2ccccc2N=[N+]=[N-])cc1` [compound 228]: the half-maximal inhibitory concentration (IC50) turned out to be 0.002 µM.

For the molecule `CCCCc1ncc(CNc2ccccc2C(=O)OCC2COC(C)(C)O2)n1Cc1ccc(C(=O)O)cc1` (centres unmarked) [exemple 26, acide 2-[[[2-butyl-1-[(4-carboxyphényl)méthyl]-1H-imidazol-5-yl]méthyl]amino]-benzoïque, 2,2-diméthyl-1,3-dioxolane-4-yl-méthyl ester], the concentration for half-maximal inhibition (IC50) worked out at 0.1 µM.

Take `CCCCc1ncc(CNc2ccccc2C(=O)OCC(O)CO)n1Cc1ccc(C(=O)O)cc1` (centres unmarked) [exemple 28, acide 2-[[[2-butyl-1-[(4-carboxyphényl)méthyl]-1H-imidazol-5-yl]méthyl]amino]-benzoïque, 2,3-dihydroxy-propyl ester]: the IC50 stood at 0.08 µM.

The molecule `CCCCc1ncc(CNc2ccccc2C(=O)O)n1Cc1ccc(C(=O)O)cc1` [exemple 32, acide 2-[[[2-butyl-1-[(4-carboxyphényl)méthyl]-1H-imidazol-5-yl]méthyl]amino]-benzoïque] yielded a half-inhibitory concentration (IC50) of 0.0036 µM.

Molecule `CCCCc1ncc(CNc2ccccc2C(=O)OCC(=O)N(CC)CC)n1Cc1ccc(C(=O)OCC(=O)N(CC)CC)cc1` [exemple 68, acide 2-[[[2-butyl-1-[(4-((((diéthylamino)carbonyl)méthoxy)carbonyl)phényl)méthyl]-1H-imidazol-5-yl]méthyl]amino]-benzoïque, ((diéthylamino)carbonyl)méthyl ester] registered an IC50 of 0.03 µM.

One may read the IC50 as the concentration that inhibits the measured activity by half. Higher therefore signals weaker potency in that assay.
